For 24 compounds, T/C results are on record in PubChem BioAssay AID310 (DTP/NCI, 2004).

The subject of the assay is C3AKF1 mice, osteogenic sarcoma HE10734 s.c., tumor weight T/C. The experiment in a line: NCI In Vivo Anticancer Drug Screen. Data for tumor model Osteogenic Sarcoma HE 10734 (subcutaneous) in C3AKF1 (CHKRF1) mice. The following applies: endpoint: mean tumor weight, schedule: Q01DX010 (ip), higher = larger tumour. How it is done:
The antitumor activity of compounds was measured in mice bearing transplantable tumors. Survival or tumor size were measured and the results are expressed as the measurement made in the treated group (T) divided by the measurement made in the vehicle treated control group (C). The tumor model used in this assay is Osteogenic Sarcoma HE 10734 (subcutaneous) in C3AKF1 (CHKRF1) mice

Where [1] appears, read: dose: 125.0 mg/kg/injection, vehicle: saline.
Where [2] appears, read: dose: 250.0 mg/kg/injection, vehicle: saline.
The mark [3] stands for this setting: dose: 500.0 mg/kg/injection, vehicle: saline.
Setting [4] is: dose: 1000.0 mg/kg/injection, vehicle: saline.
Setting [5] is: dose: 25.0 mg/kg/injection, vehicle: carboxymethylcellulose (CMC).
[6] abbreviates: dose: 50.0 mg/kg/injection, vehicle: saline.
Where [7] appears, read: dose: 25.0 mg/kg/injection, vehicle: saline.
The mark [8] stands for this setting: dose: 100.0 mg/kg/injection, vehicle: saline.
[9] abbreviates: dose: 62.0 mg/kg/injection, vehicle: saline.
Where [10] appears, read: dose: 20.0 mg/kg/injection, vehicle: saline.
Where [11] appears, read: dose: 40.0 mg/kg/injection, vehicle: saline.

Several values for one entry are separate records, joined by “and”; a condition that tells them apart may be missing. Identical values can stand only once. Results filed as inconclusive are left out.

For `Nc1nc(SCc2ccc([N+](=O)[O-])cc2)c2[nH]cnc2n1`, the T/C reads like this: under setting [1], 86 % of control; under setting [2], 89 % of control; under setting [3], 58 % of control; under setting [4], 59 % of control.

Turning to `CC[C@H]1CN2CCc3cc(OC)c(OC)cc3[C@@H]2C[C@@H]1C[C@H]1NCCc2cc(OC)c(OC)cc21`, the T/C runs as follows: (dose: 1.0 mg/kg/injection, vehicle: saline) 82 % of control; (dose: 2.0 mg/kg/injection, vehicle: saline) 82 % of control.

Turning to `COc1cc([C@@H]2c3cc4c(cc3[C@H](O)[C@H]3COC(=O)[C@@H]23)OCO4)cc(OC)c1OC`, where the note is “dose: 7.0 mg/kg/injection, vehicle: saline”, the T/C is 75 % of control.

As to `CS(=O)(=O)OCC(O)C(O)COS(C)(=O)=O` (configuration not stated), the T/C under setting [1] was 121 % of control, the T/C under setting [2] is 111 % of control, the T/C under setting [3] is 81 % of control and the T/C under setting [4] was 101 % of control.

Regarding `Nc1nc(SCc2ccccc2Cl)c2[nH]cnc2n1`, the T/C by setting is: (dose: 6.0 mg/kg/injection, vehicle: carboxymethylcellulose (CMC)) 70 % of control; (dose: 12.0 mg/kg/injection, vehicle: carboxymethylcellulose (CMC)) 52 % of control; under setting [5], 54 % of control; (dose: 50.0 mg/kg/injection, vehicle: carboxymethylcellulose (CMC)) 43 % of control; under setting [6], 32 % of control and 39 % of control; (dose: 70.0 mg/kg/injection, vehicle: saline) 41 % of control. In addition, the T/C (dose: 110.0 mg/kg/injection, vehicle: saline) is 16 % of control and 33 % of control; the T/C (dose: 165.0 mg/kg/injection, vehicle: saline) is 13 % of control.

In the case of `CC(CCc1cccc2ccccc12)(C(=O)O)C(=O)O`, the T/C was 68 % of control (dose: 35.0 mg/kg/injection, vehicle: saline) and 157 % of control under setting [6].

For `Cc1ccc(N=NN(C)C)cc1`, the T/C is, setting by setting: under setting [7], 83 % of control; under setting [6], 46 % of control; under setting [8], 46 % of control.

Turning to `CC(C)CCSc1nc(N)nc2nc[nH]c12`, the T/C is 64 % of control under setting [9] and 75 % of control under setting [1].

For the compound `CCCC(Sc1nc(N)nc2nc[nH]c12)C(=O)O` (configuration not stated), the T/C reads like this: under setting [6], 80 % of control; under setting [8], 53 % of control; (dose: 200.0 mg/kg/injection, vehicle: saline) 40 % of control; (dose: 400.0 mg/kg/injection, vehicle: saline) 17 % of control.

With `O=P(N1CC1)(N1CC1)N1CC1`, the T/C was 104 % of control (dose: 0.5 mg/kg/injection, vehicle: carboxymethylcellulose (CMC)); 76 % of control (dose: 1.0 mg/kg/injection, vehicle: carboxymethylcellulose (CMC)); 67 % of control (dose: 2.0 mg/kg/injection, vehicle: carboxymethylcellulose (CMC)); 41 % of control (dose: 4.0 mg/kg/injection, vehicle: carboxymethylcellulose (CMC)).

Turning to `Nc1nc(SCc2ccccc2)c2ncn(C3CCCC3)c2n1`, the T/C runs as follows: under setting [1], 80 % of control; under setting [2], 115 % of control; under setting [3], 83 % of control; under setting [4], 63 % of control.

As to `CN(N=O)C(N)=O`, the T/C by setting is: (dose: 10.0 mg/kg/injection, vehicle: carboxymethylcellulose (CMC)) 47 % of control and 55 % of control; (dose: 16.0 mg/kg/injection, vehicle: carboxymethylcellulose (CMC)) 34 % of control and 39 % of control; under setting [5], 38 % of control.

In the case of `CCC[CH2][Sn]([CH2]CCC)([CH2]CCC)[O]C(=O)CC[S][Sn]([CH2]CCC)([CH2]CCC)[CH2]CCC`, the T/C runs as follows: (dose: 0.75 mg/kg/injection, vehicle: saline) 124 % of control; (dose: 1.5 mg/kg/injection, vehicle: saline) 90 % of control; (dose: 6.0 mg/kg/injection, vehicle: saline) 72 % of control; (dose: 12.0 mg/kg/injection, vehicle: saline) 89 % of control; (dose: 24.0 mg/kg/injection, vehicle: saline) 30 % of control.

As to `c1cc2n(n1)CCN2`, the T/C is 100 % of control (dose: 30.0 mg/kg/injection, vehicle: saline); 68 % of control (dose: 60.0 mg/kg/injection, vehicle: saline); 40 % of control (dose: 120.0 mg/kg/injection, vehicle: saline).

Take `CCOC(=O)NC`: the T/C was 104 % of control under setting [1], 67 % of control under setting [2], 59 % of control under setting [3] and 27 % of control under setting [4].

Consider `Nc1ncnc2c1ncn2C1CCCO1` (configuration not stated), for which the T/C (dose: 75.0 mg/kg/injection, vehicle: saline) is 86 % of control and the T/C (dose: 150.0 mg/kg/injection, vehicle: saline) was 54 % of control.

As to `O=S1(=O)CCCO1`, the T/C reads like this: (dose: 40.0 mg/kg/injection, vehicle: carboxymethylcellulose (CMC)) 75 % of control; (dose: 80.0 mg/kg/injection, vehicle: carboxymethylcellulose (CMC)) 76 % of control.

As for `O=c1n(CCCl)c(=O)n(CCCl)c(=O)n1CCCl`, the T/C runs as follows: (dose: 31.0 mg/kg/injection, vehicle: saline) 81 % of control; under setting [9], 83 % of control; under setting [1], 75 % of control; (dose: 370.0 mg/kg/injection, vehicle: saline) 116 % of control.

As to `COc1ccc(-c2c(CC(=O)O)c3cc(OC)ccc3n2Cc2ccc(Cl)cc2)cc1`, the T/C (dose: 125.0 mg/kg/injection, vehicle: carboxymethylcellulose (CMC)) is 116 % of control; the T/C (dose: 250.0 mg/kg/injection, vehicle: carboxymethylcellulose (CMC)) was 66 % of control; the T/C (dose: 500.0 mg/kg/injection, vehicle: carboxymethylcellulose (CMC)) is 54 % of control; the T/C (dose: 1000.0 mg/kg/injection, vehicle: carboxymethylcellulose (CMC)) is 56 % of control.

As for `CN(C)Nc1ncnc2nc[nH]c12`, the T/C was 84 % of control under setting [10]; 72 % of control under setting [11]; 38 % of control (dose: 80.0 mg/kg/injection, vehicle: saline).

Turning to `CCc1c(CC(=O)O)c2cc(C)ccc2n1Cc1ccc(Cl)cc1`, under setting [6], the T/C is 79 % of control.

Consider `O=P1(N(CCCl)CCCl)NCCCO1` (configuration not stated), for which the T/C was 172 % of control (dose: 3.6 mg/kg/injection, vehicle: saline); 151 % of control (dose: 5.5 mg/kg/injection, vehicle: saline); 93 % of control (dose: 8.3 mg/kg/injection, vehicle: saline); 22 % of control under setting [7]; 5 % of control under setting [6]; 2 % of control under setting [8].

In the case of `CSc1ncnc2c1ncn2C1CCCO1` (configuration not stated), the T/C runs as follows: under setting [10], 76 % of control; under setting [11], 83 % of control; (dose: 160.0 mg/kg/injection, vehicle: saline) 44 % of control.

Consider `CCCCCCC(=O)NC1=C(N2CC2)C(=O)C(NC(=O)CCCCCC)=C(N2CC2)C1=O`, for which the T/C is, setting by setting: (dose: 15.0 mg/kg/injection, vehicle: carboxymethylcellulose (CMC)) 104 % of control; (dose: 30.0 mg/kg/injection, vehicle: carboxymethylcellulose (CMC)) 83 % of control; (dose: 60.0 mg/kg/injection, vehicle: carboxymethylcellulose (CMC)) 50 % of control; (dose: 120.0 mg/kg/injection, vehicle: carboxymethylcellulose (CMC)) 33 % of control.
